Test results as given in patent US9376425B2, “Heterocyclic compounds as MDM2 inhibitors for the treatment of cancer” (AMGEN INC., priority 2011, dated 2016).

target: T1, human MDM2 (GST-hMDM2 1-188), interaction with biotinylated-p53 (1-83) (Homo sapiens, UniProt Q00987); experiment: improved HTRF assay (HTRF2 assay), inhibition of HDM2-p53 interaction; format: binding; conditions: 0.2 nM GST-hMDM2, 0.5 nM biotinylated-p53, 100 mM KF
T1 construct: Amino acid residues 1-188 of human MDM2 were expressed; made in house; host or cells: Escherichia coli
In short: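 GST-hMDM2 preincubated 20 min at RT with serially diluted compound, then biotinylated p53 (1-83, E. coli) added for 60 min. Detection with SA-XLent, anti-GST cryptate and KF, equilibrated >4 h; final DMSO 2%. TR-FRET read; % inhibition calculated relative to nutlin-3.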

T1 sequence (Q00987 1-188): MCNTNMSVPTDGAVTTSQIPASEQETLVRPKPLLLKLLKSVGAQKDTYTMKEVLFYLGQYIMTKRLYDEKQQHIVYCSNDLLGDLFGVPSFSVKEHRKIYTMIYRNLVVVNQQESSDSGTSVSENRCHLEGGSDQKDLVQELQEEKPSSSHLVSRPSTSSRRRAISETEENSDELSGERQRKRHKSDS

Compound | IC50 [nM]
C=CC[C@@H]1O[C@H](c2cccc(Cl)c2)[C@@H](c2ccc(Cl)cc2)N([C@@H](CC)CN(c2ccccn2)S(=O)(=O)C2CC2)C1=O (single isomer, unassigned) [Example 179, N-((S)-2-((2S,5R,6R)-2-allyl-6-(3-chlorophenyl)-5-(4-chlorophenyl)-3-oxomorpholino)butyl)-N-(pyridin-2-yl)cyclopropanesulfonamide or N-((S)-2-((2R,5R,6R)-2-allyl-6-(3-chlorophenyl)-5-(4-chlorophenyl)-3-oxomorpholino)butyl)-N-(pyridin-2-yl)cyclopropanesulfonamide] | 141
CC(C)(C)S(=O)(=O)C[C@H](C1CC1)N1C(=O)[C@@H](CC(=O)Nc2ccccn2)O[C@H](c2cccc(Cl)c2)[C@H]1c1ccc(Cl)cc1 (single isomer, unassigned) [Example 355, 2-((2R,5R,6R)-4-((S)-2-(tert-Butylsulfonyl)-1-cyclopropylethyl)-6-(3-chlorophenyl)-5-(4-chlorophenyl)-3-oxomorpholin-2-yl)-N-(pyridin-2-yl)acetamide or 2-((2S,5R,6R)-4-((S)-2-(tert-butylsulfonyl)-1-cyclopropylethyl)-6-(3-chlorophenyl)-5-(4-chlorophenyl)-3-oxomorpholin-2-yl)-N-(pyridin-2-yl)acetamide] | 4
Cn1ccnc1C[C@H]1O[C@H](c2cccc(Cl)c2)[C@@H](c2ccc(Cl)cc2)N([C@H](CS(=O)(=O)C(C)(C)C)C2CC2)C1=O [Example 402, (2R,5R,6R)-4-((S)-2-(tert-Butylsulfonyl)-1-cyclopropylethyl)-6-(3-chlorophenyl)-5-(4-chlorophenyl)-2-((1-methyl-1H-imidazol-2-yl)methyl)morpholin-3-one] | 29
CC[C@@H](CS(=O)(=O)C(C)(C)C)N1C(=O)[C@@H](CNC(C)=O)O[C@H](c2cccc(Cl)c2)[C@H]1c1ccc(Cl)cc1 (single isomer, unassigned) [Example 380, N-(((2R,5R,6R)-4-((S)-1-(tert-Butylsulfonyl)butan-2-yl)-6-(3-chlorophenyl)-5-(4-chlorophenyl)-3-oxomorpholin-2-yl)methyl)acetamide or N-(((2S,5R,6R)-4-((S)-1-(tert-butylsulfonyl)butan-2-yl)-6-(3-chlorophenyl)-5-(4-chlorophenyl)-3-oxomorpholin-2-yl)methyl)acetamide] | 48
CC[C@@H](CN(c1ccccc1F)S(=O)(=O)C1(C)CC1)N1C(=O)[C@@H](CC(=O)O)O[C@H](c2cccc(Cl)c2)[C@H]1c1ccc(Cl)cc1 (single isomer, unassigned) [Example 174, 2-((2R,5R,6R)-6-(3-chlorophenyl)-5-(4-chlorophenyl)-4-((S)-1-(N-(2-fluorophenyl)-1-methylcyclopropanesulfonamido)butan-2-yl)-3-oxomorpholin-2-yl)acetic acid or 2-((2S,5R,6R)-6-(3-chlorophenyl)-5-(4-chlorophenyl)-4-((S)-1-(N-(2-fluorophenyl)-1-methylcyclopropanesulfonamido)butan-2-yl)-3-oxomorpholin-2-yl)acetic acid] | < 1
CC[C@@H](CN(c1ccccc1F)S(=O)(=O)C1CC1)N1C(=O)[C@H](CC(N)=O)O[C@H](c2cccc(Cl)c2)[C@H]1c1ccc(Cl)cc1 (single isomer, unassigned) [Example 241, 2-((2S,5R,6R)-6-(3-chlorophenyl)-5-(4-chlorophenyl)-4-((S)-1-(N-(2-fluorophenyl)cyclopropanesulfonamido)butan-2-yl)-3-oxomorpholin-2-yl)acetamide or 2-((2R,5R,6R)-6-(3-chlorophenyl)-5-(4-chlorophenyl)-4-((S)-1-(N-(2-fluorophenyl)cyclopropanesulfonamido)butan-2-yl)-3-oxomorpholin-2-yl)acetamide] | 1
CC(C)(O)CS(=O)(=O)C[C@H](C1CC1)N1C(=O)[C@@H](CC(=O)O)O[C@H](c2cccc(Cl)c2)[C@H]1c1ccc(Cl)cc1 (single isomer, unassigned) [Example 288, 2-((2R,5R,6R)-6-(3-Chlorophenyl)-5-(4-chlorophenyl)-4-((S)-1-cyclopropyl-2-((2-hydroxy-2-methylpropyl)sulfonyl)ethyl)-3-oxomorpholin-2-yl)acetic acid or 2-((2S,5R,6R)-6-(3-chlorophenyl)-5-(4-chlorophenyl)-4-((S)-1-cyclopropyl-2-((2-hydroxy-2-methylpropyl)sulfonyl)ethyl)-3-oxomorpholin-2-yl)acetic acid] | < 1
COc1ccc([C@H]2O[C@H](CC(=O)O)C(=O)N([C@H](CSC(C)(C)C)C3CC3)[C@@H]2c2ccc(Cl)cc2)cc1Cl (single isomer, unassigned) [Example 328, 2-((2R,5R,6R)-4-((S)-2-(tert-Butylthio)-1-cyclopropylethyl)-6-(3-chloro-4-methoxyphenyl)-5-(4-chlorophenyl)-3-oxomorpholin-2-yl)acetic acid or 2-((2S,5R,6R)-4-((S)-2-(tert-butylthio)-1-cyclopropylethyl)-6-(3-chloro-4-methoxyphenyl)-5-(4-chlorophenyl)-3-oxomorpholin-2-yl)acetic acid] | 12
C[C@@H](CS(=O)(=O)C(C)(C)C)N1C(=O)[C@H](CC(=O)NS(C)(=O)=O)O[C@H](c2cccc(Cl)c2)[C@H]1c1ccc(Cl)cc1 (single isomer, unassigned) [Example 237] | 3
CC1(C)CCCN1S(=O)(=O)C[C@H](C1CC1)N1C(=O)[C@@H](CC(=O)O)O[C@H](c2cccc(Cl)c2)[C@H]1c1ccc(Cl)cc1 (single isomer, unassigned) [Example 307, 2-((2R,5R,6R)-6-(3-Chlorophenyl)-5-(4-chlorophenyl)-4-((S)-1-cyclopropyl-2-((2,2-dimethylpyrrolidin-1-yl)sulfonyl)ethyl)-3-oxomorpholin-2-yl)acetic acid or 2-((2R,5R,6R)-6-(3-chlorophenyl)-5-(4-chlorophenyl)-4-((S)-1-cyclopropyl-2-((2,2-dimethylpyrrolidin-1-yl)sulfonyl)ethyl)-3-oxomorpholin-2-yl)acetic acid] | < 1
CC[C@@H](CS(=O)(=O)C1CC1)N1C(=O)[C@@H](CC(=O)O)O[C@H](c2cccc(Cl)c2)[C@H]1c1ccc(Cl)cc1 (single isomer, unassigned) [Example 213, 2-((2R,5R,6R)-6-(3-chlorophenyl)-5-(4-chlorophenyl)-4-((S)-1-(cyclopropylsulfonyl)butan-2-yl)-3-oxomorpholin-2-yl)acetic acid or 2-((2S,5R,6R)-6-(3-chlorophenyl)-5-(4-chlorophenyl)-4-((S)-1-(cyclopropylsulfonyl)butan-2-yl)-3-oxomorpholin-2-yl)acetic acid] | 5
CC[C@@H](CS(=O)(=O)C1CCOCC1)N1C(=O)[C@@H](CC(=O)O)O[C@H](c2cccc(Cl)c2)[C@H]1c1ccc(Cl)cc1 (single isomer, unassigned) [Example 187, 2-((2R,5R,6R)-6-(3-chlorophenyl)-5-(4-chlorophenyl)-3-oxo-4-((S)-1-((tetrahydro-2H-pyran-4-yl)sulfonyl)butan-2-yl)morpholin-2-yl)acetic acid or 2-((2S,5R,6R)-6-(3-chlorophenyl)-5-(4-chlorophenyl)-3-oxo-4-((S)-1-((tetrahydro-2H-pyran-4-yl)sulfonyl)butan-2-yl)morpholin-2-yl)acetic acid] | 2
2-((2R,5R,6R)-6-(3-chlorophenyl)-5-(4-chlorophenyl)-4-((S)-1-(N-(2-fluorophenyl)cyclopropanesulfonamido)-3-methylbutan-2-yl)-3-oxomorpholin-2-yl)acetic acid or 2-((2S,5R,6R)-6-(3-chlorophenyl)-5-(4-chlorophenyl)-4-((S)-1-(N-(2-fluorophenyl)cyclopropane sulfonamido)-3-methylbutan-2-yl)-3-oxomorpholin-2-yl)acetic acid [Example 196] | 1
CC[C@@H](CS(=O)(=O)C(C)C)N1C(=O)[C@@H](CC(=O)O)O[C@H](c2cc(Cl)cc(Cl)c2)[C@H]1c1ccc(Cl)cc1 (single isomer, unassigned) [Example 146, 2-((2R,5R,6R)-5-(4-chlorophenyl)-6-(3,5-dichlorophenyl)-4-((S)-1-(isopropylsulfonyl)butan-2-yl)-3-oxomorpholin-2-yl)acetic acid or 2-((2S,5R,6R)-5-(4-chlorophenyl)-6-(3,5-dichlorophenyl)-4-((S)-1-(isopropylsulfonyl)butan-2-yl)-3-oxomorpholin-2-yl)acetic acid] | 15
O=C(O)C[C@H]1O[C@H](c2cccc(Cl)c2)[C@@H](c2ccc(Cl)c(F)c2)N([C@H](CN(c2ccccc2F)S(=O)(=O)C2CC2)C2CC2)C1=O (single isomer, unassigned) [Example 315, 2-((2R,5R,6R)-5-(4-Chloro-3-fluorophenyl)-6-(3-chlorophenyl)-4-((S)-1-cyclopropyl-2-(N-(2-fluorophenyl)cyclopropanesulfonamido)ethyl)-3-oxomorpholin-2-yl)acetic acid or 2-((2S,5R,6R)-5-(4-chloro-3-fluorophenyl)-6-(3-chlorophenyl)-4-((S)-1-cyclopropyl-2-(N-(2-fluorophenyl)cyclopropanesulfonamido)ethyl)-3-oxomorpholin-2-yl)acetic acid] | < 1
CC[C@@H](CS(=O)(=O)C(C)(C)C)N1C(=O)[C@@H](CNC(C)=O)O[C@H](c2cccc(Cl)c2)[C@H]1c1ccc(Cl)cc1 (single isomer, unassigned) [Example 379, N-(((2R,5R,6R)-4-((S)-1-(tert-Butylsulfonyl)butan-2-yl)-6-(3-chlorophenyl)-5-(4-chlorophenyl)-3-oxomorpholin-2-yl)methyl)acetamide or N-(42S,5R,6R)-4-((S)-1-(tert-butylsulfonyl)butan-2-yl)-6-(3-chlorophenyl)-5-(4-chlorophenyl)-3-oxomorpholin-2-yl)methyl)acetamide] | 82
